In publication PMC11796312, “Multifunctional, Fluorene‐Based Modulator of Cholinergic and GABAergic Neurotransmission as a Novel Drug Candidate for Palliative Treatment of Alzheimer's Disease” (Angewandte Chemie (International Ed. in English), 2024):
Entries after “also recorded” stand apart in the source; their conditions may differ.

Key:
[1] = biological target: T1, mGAT3 (Mus musculus, UniProt P31649); test: [3H]GABA uptake assay, mGAT3; type: cell-based
T1 sequence (P31649 1-602): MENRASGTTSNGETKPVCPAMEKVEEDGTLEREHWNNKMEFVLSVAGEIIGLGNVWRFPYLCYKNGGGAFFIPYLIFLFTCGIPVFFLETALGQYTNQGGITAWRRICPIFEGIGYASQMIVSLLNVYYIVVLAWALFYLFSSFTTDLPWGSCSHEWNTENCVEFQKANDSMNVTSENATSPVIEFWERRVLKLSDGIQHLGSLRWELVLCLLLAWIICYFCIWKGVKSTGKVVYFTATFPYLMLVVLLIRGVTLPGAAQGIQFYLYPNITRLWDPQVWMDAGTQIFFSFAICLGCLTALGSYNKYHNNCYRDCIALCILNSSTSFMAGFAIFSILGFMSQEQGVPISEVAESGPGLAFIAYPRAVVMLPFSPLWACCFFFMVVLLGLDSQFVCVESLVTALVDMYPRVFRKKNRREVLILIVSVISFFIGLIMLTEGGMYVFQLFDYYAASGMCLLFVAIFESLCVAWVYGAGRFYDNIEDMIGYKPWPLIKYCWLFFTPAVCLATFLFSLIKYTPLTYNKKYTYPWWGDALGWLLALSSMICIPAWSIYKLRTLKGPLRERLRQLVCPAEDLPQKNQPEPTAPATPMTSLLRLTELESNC

[2] = tested on: mice treated with scopolamine; test: Passive avoidance (PA) task, scopolamine-induced amnesia; type: in vivo; settings: 10 mg/kg i.p., vs scopolamine-treated group
Procedure: Animals and housing conditions
In all pharmacodynamic in vivo experiments, except for the Barnes maze (BM) task, adult male Albino Swiss (CD-1) mice weighing between 18 and 22 g and purchased from the Animal Breeding Farm of the Faculty of Pharmacy, Jagiellonian University Medical College were used. In BM task, C57BL/6J mice of the same weight (Animalab, Poland) were used.
Animals were housed in cages (10 mice per cage) at a constant temperature of 22 ± 2 °C, humidity of 55 ± 10%, and a light/dark (12:12) cycle (lights on at 7 AM). Before the experiments, the animals had unlimited access to food and water. Specified conditions for the maintenance of mice were ensured throughout the experiments, including tree bedding (Transwior, Poland) and cage enrichment (tunnels, nesting material, wooden igloos, etc.). […]
doses for behavioral assays. Lower doses were also assessed if at least one of them was […]
On the first day, during the acquisition trial (a conditioning phase), the test compound 6, scopolamine, and vehicle were injected. […] The latency between opening the guillotine gate and the mouse entering the black compartment was measured for each mouse. On the next day, during the retention (drug-off) trial, the mice were placed again into the white compartment for a 30-s habituation period, and the latency to enter the black compartment was measured for each mouse. […]

In the case of `O[C@H](CNCC1CC1)[C@H](Cc1ccccc1)NC1c2ccccc2-c2ccccc21` [Compound 6], the IC50 [1] is reported as 7.41 ± 0.69 µM and the “step-through latency in the retention trial” value [2] is reported as “significant differences were observed in the retention trial; also recorded: prolonged step‐thorough latency”.
